The subject of this assay is Jurkat. The assay can be described thus: Cytotoxicity against Jurkat T lymphocytes by MTT assay. The following applies: Homo sapiens. Type of assay: functional, cell-based. Background: Tetrazolium dyes change colour on reduction, which living cells bring about.

Molecules are shown by their SMILES.

In the case of `COc1cccc2c1C(=O)c1c(O)c3c(c(O)c1C2=O)C[C@@](O)(C(C)=O)C[C@@H]3O[C@H]1C[C@H](NCc2cccc(CN[C@@H]3C[C@@H](O[C@H]4C[C@](O)(C(C)=O)Cc5c(O)c6c(c(O)c54)C(=O)c4c(OC)cccc4C6=O)O[C@H](C)[C@@H]3O)c2)[C@H](O)[C@H](C)O1`, the IC50 is 17 nM and the 75% effect level (IC75) was put at 53.5 nM.

Molecule `COc1cccc2c1C(=O)c1c(O)c3c(c(O)c1C2=O)C[C@@](O)(C(C)=O)C[C@@H]3O[C@H]1C[C@H](NCc2ccc(CN[C@@H]3C[C@@H](O[C@H]4C[C@](O)(C(C)=O)Cc5c(O)c6c(c(O)c54)C(=O)c4c(OC)cccc4C6=O)O[C@H](C)[C@@H]3O)cc2)[C@H](O)[C@H](C)O1` gave an IC50 of 17.7 nM and an IC75 of 60 nM.

Turning to `COc1cccc2c1C(=O)c1c(O)c3c(c(O)c1C2=O)C[C@@](O)(C(C)=O)C[C@@H]3O[C@H]1C[C@H](N)[C@H](O)[C@H](C)O1` [DAUNORUBICIN], the IC50 was found to be 82.6 nM and the IC75 is 182 nM.

The IC50 is the concentration that gives 50% inhibition. The term IC75 denotes the concentration needed for an effect of 75%. High values mean weaker potency, low ones greater potency.

(Values after ChEMBL document CHEMBL1140422, “A new bisintercalating anthracycline with picomolar DNA binding affinity” (J Med Chem, 2005).)
